This is an account of results in patent US9421209B2, “Kinase modulators” (Rhizen Pharmaceuticals SA, priority 2009, dated 2016).

Like-named read-outs stand apart in the source and are kept apart here.

One data set has as its target P110 δ/Pi3K δ (Homo sapiens, UniProt O00329). Kind of data set: Fluorescent (HTRF) determination of PI3K enzyme activity, δ isoform. Set-up: inhibition: dose or concentration left out as unconfirmed. It is filed as biochemical. The conditions noted are these: for IC50: read-out: P110 δ/ Pi3K δ IC 50 nM. In outline:
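HTRF kit detecting PIP3 formed from PIP2 by human PI3Kδ, at room temperature. Reaction started with 400 μM ATP (addition concentration) for 30 min, then stopped, and detection mix incubated 6–18 h in the dark. Percent inhibition taken against blank and enzyme controls, and IC50 fitted.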

For a further data set, the target named is P110β (Homo sapiens, UniProt P42338). Kind of data set: Fluorescent (HTRF) determination of PI3K enzyme activity, β isoform. It is filed as biochemical. The text has this: Assay 1: Fluorescent determination of PI3Kinase Kinase enzyme activity
P110β, sequence (P42338 whole entry, canonical isoform): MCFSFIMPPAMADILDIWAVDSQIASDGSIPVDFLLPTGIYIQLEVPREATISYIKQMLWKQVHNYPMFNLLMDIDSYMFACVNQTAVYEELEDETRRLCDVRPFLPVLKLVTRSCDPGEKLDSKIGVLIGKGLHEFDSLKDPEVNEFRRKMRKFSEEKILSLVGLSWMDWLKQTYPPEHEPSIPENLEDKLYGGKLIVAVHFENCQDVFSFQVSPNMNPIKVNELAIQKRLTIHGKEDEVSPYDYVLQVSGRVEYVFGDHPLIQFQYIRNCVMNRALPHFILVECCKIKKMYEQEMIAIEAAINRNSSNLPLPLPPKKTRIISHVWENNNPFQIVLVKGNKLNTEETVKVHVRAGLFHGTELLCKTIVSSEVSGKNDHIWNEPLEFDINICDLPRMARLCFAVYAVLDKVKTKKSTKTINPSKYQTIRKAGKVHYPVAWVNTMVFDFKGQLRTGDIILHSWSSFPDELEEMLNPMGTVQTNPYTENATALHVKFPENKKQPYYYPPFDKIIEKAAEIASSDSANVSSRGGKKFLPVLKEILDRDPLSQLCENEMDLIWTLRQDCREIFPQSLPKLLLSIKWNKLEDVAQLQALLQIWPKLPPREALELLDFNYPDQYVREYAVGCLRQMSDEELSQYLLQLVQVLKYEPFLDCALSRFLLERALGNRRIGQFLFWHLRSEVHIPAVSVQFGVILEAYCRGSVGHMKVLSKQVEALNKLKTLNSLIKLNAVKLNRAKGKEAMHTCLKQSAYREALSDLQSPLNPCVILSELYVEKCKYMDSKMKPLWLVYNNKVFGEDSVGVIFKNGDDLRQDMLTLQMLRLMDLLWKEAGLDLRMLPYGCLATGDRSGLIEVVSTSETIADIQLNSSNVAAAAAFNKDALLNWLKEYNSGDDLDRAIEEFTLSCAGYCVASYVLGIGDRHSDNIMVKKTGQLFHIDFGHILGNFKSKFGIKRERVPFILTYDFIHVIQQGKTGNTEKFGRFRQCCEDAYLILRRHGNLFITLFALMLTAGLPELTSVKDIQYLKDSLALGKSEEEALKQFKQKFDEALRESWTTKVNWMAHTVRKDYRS
P110β, sequence (P27986 whole entry partner, canonical isoform): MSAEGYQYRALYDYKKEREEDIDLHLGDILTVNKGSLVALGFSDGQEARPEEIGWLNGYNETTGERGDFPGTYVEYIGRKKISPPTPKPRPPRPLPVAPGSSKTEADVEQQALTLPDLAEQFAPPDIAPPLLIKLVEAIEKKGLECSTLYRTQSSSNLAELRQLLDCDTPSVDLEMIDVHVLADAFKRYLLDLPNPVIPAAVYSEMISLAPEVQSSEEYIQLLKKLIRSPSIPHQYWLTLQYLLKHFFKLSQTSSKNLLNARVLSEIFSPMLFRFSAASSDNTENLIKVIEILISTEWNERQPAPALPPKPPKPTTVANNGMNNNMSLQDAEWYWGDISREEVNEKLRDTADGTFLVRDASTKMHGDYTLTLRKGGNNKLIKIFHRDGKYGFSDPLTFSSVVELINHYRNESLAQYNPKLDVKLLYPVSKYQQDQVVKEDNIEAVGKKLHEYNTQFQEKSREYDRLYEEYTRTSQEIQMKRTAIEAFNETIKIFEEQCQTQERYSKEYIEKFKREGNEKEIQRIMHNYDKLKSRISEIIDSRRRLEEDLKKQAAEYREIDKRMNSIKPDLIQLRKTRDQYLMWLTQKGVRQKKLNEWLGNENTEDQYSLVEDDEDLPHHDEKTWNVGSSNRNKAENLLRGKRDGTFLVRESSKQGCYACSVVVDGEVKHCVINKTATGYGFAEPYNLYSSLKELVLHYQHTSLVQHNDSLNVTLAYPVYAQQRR
Phosphoinositide 3 kinases (PI3K) belong to a class of lipid kinases that play a critical role in the regulation of several key cellular processes. The PI3K are capable of phosphorylating the 3-hydroxy position of phosphoinositols thereby generating second messengers involved in downstream signalling events. The homogenous time resolved fluorescence (HTRF) assay allows detection of 3,4,5-triphosphate (PIP3) formed as a result of phosphorylation of phosphotidylinositol 4,5-biphosphate (PIP2) by PI3K isoforms such as α, β, γ or δ.
PI3K isoform activity for α, β, γ or δ was determined using a PI3K human HTRF™ Assay Kit (Millipore, Billerica, Mass.) with modifications. All incubations were carried out at room temperature. Briefly, 0.5 μl of 40× inhibitor (in 100% DMSO) or 100% DMSO were added to each well of a 384-well black plate (Greiner Bio-One, Monroe, N.C.) containing 14.5 μl 1× reaction buffer/PIP2 (10 mM MgCl2, 5 mM DTT, 1.38 μM PIP2) mix with or without enzyme and incubated for 10 min. After the initial incubation, 5 μl/well of 400 μM ATP was added and incubated for an additional 30 minutes. Reaction was terminated by adding 5 μl/well stop solution (Millipore, Billerica, Mass.). Five microliters of detection mix (Millipore, Billerica, Mass.) were then added to each well and was incubated for 6-18 h in the dark. HRTF ratio was measured on a microplate reader (BMG Labtech., Germany) at an excitation wavelength of 337 nm and emission wavelengths of 665 and 620 nm with an integration time of […]. Data were analyzed using Graphpad Prism (Graphpad software; San Diego Calif.) for IC50 determination. Percent inhibition was calculated based on the values for the blank and enzyme controls. The results are provided below in Table 2 & 3.

P110 δ/Pi3K δ, sequence (O00329 whole entry, canonical isoform): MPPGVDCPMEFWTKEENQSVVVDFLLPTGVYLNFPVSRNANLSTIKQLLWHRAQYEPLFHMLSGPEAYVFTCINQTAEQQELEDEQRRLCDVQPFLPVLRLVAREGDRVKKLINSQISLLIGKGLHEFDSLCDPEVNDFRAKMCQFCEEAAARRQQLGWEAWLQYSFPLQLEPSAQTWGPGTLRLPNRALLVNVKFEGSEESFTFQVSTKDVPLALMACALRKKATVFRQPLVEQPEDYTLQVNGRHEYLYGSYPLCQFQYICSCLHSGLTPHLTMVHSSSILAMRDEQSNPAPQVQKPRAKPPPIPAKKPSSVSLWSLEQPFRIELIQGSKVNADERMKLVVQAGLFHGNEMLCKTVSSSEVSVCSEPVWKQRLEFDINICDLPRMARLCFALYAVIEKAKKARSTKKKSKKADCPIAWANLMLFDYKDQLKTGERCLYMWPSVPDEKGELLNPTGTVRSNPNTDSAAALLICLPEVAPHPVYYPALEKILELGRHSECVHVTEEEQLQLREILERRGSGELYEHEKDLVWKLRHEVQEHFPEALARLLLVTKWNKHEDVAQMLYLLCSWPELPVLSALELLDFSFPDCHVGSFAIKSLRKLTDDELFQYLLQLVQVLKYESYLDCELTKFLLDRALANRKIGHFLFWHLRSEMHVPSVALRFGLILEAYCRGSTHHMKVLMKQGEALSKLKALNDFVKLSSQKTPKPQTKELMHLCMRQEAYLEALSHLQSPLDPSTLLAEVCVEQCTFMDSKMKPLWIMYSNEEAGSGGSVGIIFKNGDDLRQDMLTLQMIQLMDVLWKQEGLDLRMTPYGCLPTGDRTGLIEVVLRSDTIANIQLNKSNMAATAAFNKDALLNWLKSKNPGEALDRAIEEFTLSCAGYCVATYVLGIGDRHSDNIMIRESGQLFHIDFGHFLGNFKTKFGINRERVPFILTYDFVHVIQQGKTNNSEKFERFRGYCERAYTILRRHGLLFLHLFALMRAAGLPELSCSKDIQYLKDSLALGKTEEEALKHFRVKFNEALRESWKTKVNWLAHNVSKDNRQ
P110 δ/Pi3K δ, sequence (P27986 whole entry partner, canonical isoform): as the sequence (P27986 whole entry partner, canonical isoform) above

Usually melting point stands for the temperature of the solid-liquid transition. On to `Cc1n[nH]c2cc(-c3nn([C@H](C)c4oc5ccccc5c(=O)c4-c4cccc(F)c4)c4ncnc(N)c34)ccc12` (single isomer, unassigned) [Example 129, (−)-2-(1-(4-amino-3-(3-methyl-1H-indazol-6-yl)-1H-pyrazolo[3,4-d]pyrimidin-1-yl)ethyl)-3-(3-fluorophenyl)-4H-chromen-4-one], for which the melting point lay in the range of 157 to 160 °C. For the same compound, the IC50 on P110 δ/Pi3K δ was more than 500 nM. Further, the “% inhibition (1 μM) P110β” value on P110β (1 µM) is on record as “++ (++ is less than equal to 50% inhibition but more than equal to 25% at 1 μM)”.

As a reminder, the inhibition is the share of the control response that was lost under treatment. Compound `CC(c1oc2ccccc2c(=O)c1-c1cccc(F)c1)n1nc(-c2csc(C=O)c2)c2c(N)ncnc21` (centres unmarked) [Example 113, 4-(4-amino-1-(1-(3-(3-fluorophenyl)-4-oxo-4H-chromen-2-yl)ethyl)-1H-pyrazolo[3,4-d]pyrimidin-3-yl)thiophene-2-carbaldehyde] yielded a melting point of 192 to 195 °C. The compound also registered an inhibition against P110 δ/Pi3K δ of 50 to 100%. Further, the inhibition at 1 µM against P110β was less than 25%.

Compound `CC(c1oc2ccccc2c(=O)c1-c1cccc(F)c1)n1nc(-c2csc(CO)c2)c2c(N)ncnc21` (centres unmarked) [Example 114, 2-(1-(4-amino-3-(5-(hydroxymethyl)thiophen-3-yl)-1H-pyrazolo[3,4-d]pyrimidin-1-yl)ethyl)-3-(3-fluorophenyl)-4H-chromen-4-one] yielded a melting point of 154 to 156 °C. The inhibition at P110 δ/Pi3K δ fell in the range of 50 to 100%. For the same compound, at P110β, the inhibition at 1 µM was less than 25%.

On to `Cc1c[nH]c2cc(-c3nn(C(C)c4oc5ccccc5c(=O)c4-c4cccc(F)c4)c4ncnc(N)c34)ccc12` (centres unmarked) [Example 117, 2-(1-(4-amino-3-(3-methyl-1H-indol-6-yl)-1H-pyrazolo[3,4-d]pyrimidin-1-yl)ethyl)-3-(3-fluorophenyl)-4H-chromen-4-one], for which the melting point fell in the range of 262 to 265 °C. Besides, the “P110 δ/ Pi3K δ % inhibition*” value on P110 δ/Pi3K δ (@ 0.3 uM) is given as “++ (++ is less than equal to 100% inhibition but more than equal to 50% at 1 μM)”. Further, the “% inhibition (1 μM) P110β” value on P110β was “+ (+ is less than equal to 25% inhibition at 1 μM)”.

Compound `O=c1c(-c2cccc(F)c2)c(CNc2ncnc3[nH]cnc23)oc2ccc(F)cc12` [Example 122, 2-((9H-purin-6-ylamino)methyl)-6-fluoro-3-(3-fluorophenyl)-4H-chromen-4-one] registered a melting point of 229 to 232 °C. On P110 δ/Pi3K δ, the inhibition was less than 50%. The same compound yielded an inhibition at 1 µM at P110β of 50 to 100%.

With `O=c1c(-c2ccccc2)c(CNc2ncnc3[nH]cnc23)oc2ccc(F)cc12` [Example 123, 2-((9H-purin-6-ylamino)methyl)-6-fluoro-3-phenyl-4H-chromen-4-one], the melting point was 183 to 186 °C. The compound also registered an inhibition at P110 δ/Pi3K δ of less than 50%. In addition, the inhibition at 1 µM at P110β was less than 25%.

For the compound `CC(c1oc2ccccc2c(=O)c1-c1cccc(F)c1)n1nc(-c2cnn(Cc3ccccc3)c2)c2c(N)ncnc21` (centres unmarked) [Example 134, 2-(1-(4-amino-3-(1-benzyl-1H-pyrazol-4-yl)-1H-pyrazolo[3,4-d]pyrimidin-1-yl)ethyl)-3-(3-fluorophenyl)-4H-chromen-4-one], the melting point fell in the range of 140 to 142 °C. The inhibition on P110 δ/Pi3K δ was less than 50%. This compound also returned an inhibition at 1 µM against P110β of 25 to 50%.

Take `Cc1cc(-c2nn(C(C)c3oc4ccccc4c(=O)c3-c3cccc(F)c3)c3ncnc(N)c23)ccn1` (centres unmarked) [Example 135, 2-(1-(4-amino-3-(2-methylpyridin-4-yl)-1H-pyrazolo[3,4-d]pyrimidin-1-yl)ethyl)-3-(3-fluorophenyl)-4H-chromen-4-one]: the melting point is 266 to 268 °C. For the same compound, the inhibition against P110 δ/Pi3K δ is less than 50%. The inhibition at 1 µM against P110β is 25 to 50%.

On to `CC(c1oc2ccccc2c(=O)c1-c1cccc(F)c1)n1nc(-c2ccc3c(c2)OCCCO3)c2c(N)ncnc21` (centres unmarked) [Example 136, 2-(1-(4-amino-3-(3,4-dihydro-2H-benzo[b][1,4]dioxepin-7-yl)-1H-pyrazolo[3,4-d]pyrimidin-1-yl)ethyl)-3-(3-fluorophenyl)-4H-chromen-4-one], for which the melting point lay in the range of 234 to 237 °C. Also, the inhibition against P110 δ/Pi3K δ is less than 50%. Besides, the inhibition at 1 µM at P110β lay in the range of 25 to 50%.

Compound `CC(c1oc2ccccc2c(=O)c1-c1cccc(F)c1)n1nc(-c2ccc(N3CCOCC3)nc2)c2c(N)ncnc21` (centres unmarked) [Example 137, 2-(1-(4-amino-3-(6-morpholinopyridin-3-yl)-1H-pyrazolo[3,4-d]pyrimidin-1-yl)ethyl)-3-(3-fluorophenyl)-4H-chromen-4-one] yielded a melting point of 269 to 271 °C. The inhibition against P110 δ/Pi3K δ is less than 50%. Also, the inhibition at 1 µM on P110β lay in the range of 25 to 50%.

Regarding `CC(C)Oc1ccc(-c2nn(C(C)c3oc4ccccc4c(=O)c3-c3cccc(F)c3)c3ncnc(N)c23)cc1` (centres unmarked) [Example 144, 2-(1-(4-amino-3-(4-isopropoxyphenyl)-1H-pyrazolo[3,4-d]pyrimidin-1-yl)ethyl)-3-(3-fluorophenyl)-4H-chromen-4-one], the melting point fell in the range of 224 to 226 °C. Besides, on P110 δ/Pi3K δ, the inhibition was in the range of 50 to 100% and the IC50 is less than 250 nM. Also, the inhibition at 1 µM against P110β was 50 to 100%.

As to `CC(c1oc2ccccc2c(=O)c1-c1cccc(F)c1)n1nc(-c2ccc(OC(F)(F)F)cc2)c2c(N)ncnc21` (centres unmarked) [Example 145, 2-(1-(4-amino-3-(4-(trifluoromethoxy)phenyl)-1H-pyrazolo[3,4-d]pyrimidin-1-yl)ethyl)-3-(3-fluorophenyl)-4H-chromen-4-one], the melting point fell in the range of 224 to 226 °C. This compound also returned an inhibition against P110 δ/Pi3K δ of less than 50%. The inhibition at 1 µM against P110β fell in the range of 25 to 50%.

In turn, `CC(=O)c1ccc(-c2nn(C(C)c3oc4ccccc4c(=O)c3-c3cccc(F)c3)c3ncnc(N)c23)cc1` (centres unmarked) [Example 146, 2-(1-(3-(4-acetylphenyl)-4-amino-1H-pyrazolo[3,4-d]pyrimidin-1-yl)ethyl)-3-(3-fluorophenyl)-4H-chromen-4-one] yielded a melting point of 218 to 221 °C. The same compound gave an inhibition against P110 δ/Pi3K δ of 50 to 100%. In addition, the inhibition at 1 µM on P110β was less than 25%.

On to `CC(c1oc2ccccc2c(=O)c1-c1cccc(F)c1)n1nc(-c2ccc(OCc3ccccc3)cc2)c2c(N)ncnc21` (centres unmarked) [Example 147, 2-(1-(4-amino-3-(4-(benzyloxy)phenyl)-1H-pyrazolo[3,4-d]pyrimidin-1-yl)ethyl)-3-(3-fluorophenyl)-4H-chromen-4-one], for which the melting point fell in the range of 176 to 178 °C. The compound also had an inhibition on P110 δ/Pi3K δ of less than 50%. Besides, the inhibition at 1 µM on P110β was in the range of 25 to 50%.

Turning to `CC(c1oc2ccccc2c(=O)c1-c1cccc(F)c1)n1nc(-c2ccc(N(C)C)cc2)c2c(N)ncnc21` (centres unmarked) [Example 148, 2-(1-(4-amino-3-(4-(dimethylamino)phenyl)-1H-pyrazolo[3,4-d]pyrimidin-1-yl)ethyl)-3-(3-fluorophenyl)-4H-chromen-4-one], the melting point lay in the range of 214 to 217 °C. In addition, at P110 δ/Pi3K δ, the inhibition was in the range of 50 to 100%. For the same compound, at P110β, the inhibition at 1 µM was in the range of 50 to 100%.

Regarding `CC(c1oc2ccccc2c(=O)c1-c1cccc(F)c1)n1nc(-c2ccc(S(C)(=O)=O)cc2)c2c(N)ncnc21` (centres unmarked) [Example 149, 2-(1-(4-amino-3-(4-(methylsulfonyl)phenyl)-1H-pyrazolo[3,4-d]pyrimidin-1-yl)ethyl)-3-(3-fluorophenyl)-4H-chromen-4-one], the melting point was in the range of 259 to 262 °C. At P110 δ/Pi3K δ, this compound displayed an inhibition of less than 50%. This compound also had an inhibition at 1 µM at P110β of 25 to 50%.

Consider `CCOc1cccc(-c2nn(C(C)c3oc4ccccc4c(=O)c3-c3cccc(F)c3)c3ncnc(N)c23)c1` (centres unmarked) [Example 150, 2-(1-(4-amino-3-(3-ethoxyphenyl)-1H-pyrazolo[3,4-d]pyrimidin-1-yl)ethyl)-3-(3-fluorophenyl)-4H-chromen-4-one], for which the melting point was in the range of 162 to 165 °C. This compound had an inhibition on P110 δ/Pi3K δ of less than 50%. Also, at P110β, the inhibition at 1 µM lay in the range of 25 to 50%.

`CC(c1oc2ccccc2c(=O)c1-c1cccc(F)c1)n1nc(-c2cc3ccccc3s2)c2c(N)ncnc21` (centres unmarked) [Example 151, 2-(1-(4-amino-3-(benzo[b]thiophen-2-yl)-1H-pyrazolo[3,4-d]pyrimidin-1-yl)ethyl)-3-(3-fluorophenyl)-4H-chromen-4-one] had a melting point of 242 to 245 °C. In addition, on P110 δ/Pi3K δ, the inhibition was in the range of 50 to 100% and the IC50 is less than 250 nM. The inhibition at 1 µM against P110β lay in the range of 25 to 50%.

Regarding `CC(c1oc2ccccc2c(=O)c1-c1cccc(F)c1)n1nc(-c2ccc(Cl)s2)c2c(N)ncnc21` (centres unmarked) [Example 152, 2-(1-(4-amino-3-(5-chlorothiophen-2-yl)-1H-pyrazolo[3,4-d]pyrimidin-1-yl)ethyl)-3-(3-fluorophenyl)-4H-chromen-4-one], the melting point was 226 to 229 °C. Further, the inhibition at P110 δ/Pi3K δ is less than 50%. Moreover, at P110β, the inhibition at 1 µM was less than 25%.
